# Patent US5324502A, “Radiopharmaceuticals for imaging the heart” (priority 1992, dated 1994)
# Read-outs that look alike come from different tables or passages of the source.
# Experiments:
# [1] = rat
# Protocol: The gallium-67 complexes are prepared by ligand exchange from gallium-67 chloride, employing the tris(acetylacetonato)gallium(III) complex as an intermediate. The Ga-67 acetylacetonate in ethanol is reacted with the chelating ligand or ligand precursor at elevated temperature to form rapidly the desired gallium radiopharmaceutical. […] The biodistribution of several radiopharmaceuticals was determined in rats following intravenous injection using techniques previously described (M. A. Green, Nuclear Medicine and Biology 14:59-61, 1987; E. John and M. A. Green, J. Medicinal Chemistry, 33:1764-1770, 1990).
# Under ether anesthesia, 1 to 3 μCi (0.1-0.2 mL) of no-carrier-added Ga-67 compound was administered by bolus injection into the femoral vein of male Sprague-Dawley rats. The ether anesthetized rats were sacrificed by decapitation at given time intervals post-injection, organs of interest were removed, weighed, and the gallium-67 activity counted. The biodistribution was calculated as a percentage of the injected dose per gram of tissue and percentage of injected dose per organ for each sample.
# [2] = Octanol/water partition coefficient of radiolabeled gallium complexes; assay type: physicochemical
# Protocol: Octanol/water partition coefficients were measured by vortex mixing 1 mL of 1-octanol and 1 mL of isotonic Tris buffer (pH 7.0) with a 1-5 μL sample of the radiolabeled gallium complex. Following centrifugation at >1200 g for 5 minutes, the octanol and aqueous phases were sampled and counted in an automatic well counter.
compound,measurement,setting,value
"[67Ga+3].[O-]c1ccccc1C=NCCCNCCNCCCN=Cc1ccccc1[O-] [Sal2 BAPEN, ^67 GaL^+ L = [bis(salicylaldimino)-N,N'-bis(3-aminopropyl)-ethylenediamine]]","% injected dose in heart, 1 min","[1]; in vivo, iv",0.45 ± 0.01 % injected dose
same,"% injected dose in heart, 2 h","[1]; in vivo, iv",0.41 ± 0.03 % injected dose
same,"% Injected Dose per Gram Tissue, Blood","[1]; in vivo, iv, 1 min",0.30 ± 0.01
same,"% Injected Dose per Gram Tissue, Brain","[1]; in vivo, iv, 1 min",0.02 ± 0.01
same,"% Injected Dose per Gram Tissue, Heart","[1]; in vivo, iv, 1 min",0.65 ± 0.02
same,"% Injected Dose per Gram Tissue, Kidney (one)","[1]; in vivo, iv, 1 min",12.39 ± 0.55
same,"% Injected Dose per Gram Tissue, Liver","[1]; in vivo, iv, 1 min",3.27 ± 0.44
same,"% Injected Dose per Gram Tissue, Lungs","[1]; in vivo, iv, 1 min",0.85 ± 0.09
same,"% Injected Dose per Gram Tissue, Spleen","[1]; in vivo, iv, 1 min",0.27 ± 0.03
same,Heart/Blood,"[1]; in vivo, iv, 1 min",2.15 ± 0.05
same,"% Injected Dose per Gram Tissue, Blood","[1]; in vivo, iv, 2 h",0.05 ± 0.01
same,"% Injected Dose per Gram Tissue, Brain","[1]; in vivo, iv, 2 h",0.01 ± 0.003
same,"% Injected Dose per Gram Tissue, Heart","[1]; in vivo, iv, 2 h",0.58 ± 0.05
same,"% Injected Dose per Gram Tissue, Kidney (one)","[1]; in vivo, iv, 2 h",1.85 ± 0.30
same,"% Injected Dose per Gram Tissue, Liver","[1]; in vivo, iv, 2 h",0.64 ± 0.10
same,"% Injected Dose per Gram Tissue, Lungs","[1]; in vivo, iv, 2 h",0.24 ± 0.03
same,"% Injected Dose per Gram Tissue, Spleen","[1]; in vivo, iv, 2 h",0.11 ± 0.01
same,Heart/Blood,"[1]; in vivo, iv, 2 h",12.44 ± 0.42
same,"% Injected Dose per Gram Tissue, Blood","[1]; in vivo, iv, […]",0.07 ± 0.01
same,"% Injected Dose per Gram Tissue, Brain","[1]; in vivo, iv, […]",0.01 ± 0.001
same,"% Injected Dose per Gram Tissue, Heart","[1]; in vivo, iv, […]",0.60 ± 0.03
same,"% Injected Dose per Gram Tissue, Kidney (one)","[1]; in vivo, iv, […]",4.47 ± 0.62
same,"% Injected Dose per Gram Tissue, Liver","[1]; in vivo, iv, […]",1.20 ± 0.16
same,"% Injected Dose per Gram Tissue, Lungs","[1]; in vivo, iv, […]",0.29 ± 0.02
same,"% Injected Dose per Gram Tissue, Spleen","[1]; in vivo, iv, […]",0.11 ± 0.01
same,Heart/Blood,"[1]; in vivo, iv, […]",8.34 ± 0.66
same,log P,"[2]; octanol/tris buffer, pH 7",0.56
"^67 GaL^+ L = [(4,6-MeO2 Sal)2 DM-BAPEN, ^67 GaL^+ L = [bis(4,6-dimethoxysalicylaldimino)-N,N'-bis(2,2'-dimethyl-3-aminopropyl)-ethylenediamine]]","% Injected Dose per Gram Tissue, Blood","[1]; i.v., 1 min",1.30 ± 0.45 % Injected Dose per Gram Tissu
same,"% Injected Dose per Gram Tissue, Brain","[1]; i.v., 1 min",0.06 ± 0.01 % Injected Dose per Gram Tissu
same,"% Injected Dose per Gram Tissue, Heart","[1]; i.v., 1 min",1.31 ± 0.17 % Injected Dose per Gram Tissu
same,"% Injected Dose per Gram Tissue, Kidney (one)","[1]; i.v., 1 min",10.62 ± 0.94 % Injected Dose per Gram Tissu
same,"% Injected Dose per Gram Tissue, Liver","[1]; i.v., 1 min",5.82 ± 0.93 % Injected Dose per Gram Tissu
same,"% Injected Dose per Gram Tissue, Lungs","[1]; i.v., 1 min",1.24 ± 0.20 % Injected Dose per Gram Tissu
same,"% Injected Dose per Gram Tissue, Spleen","[1]; i.v., 1 min",1.59 ± 0.57 % Injected Dose per Gram Tissu
same,"% Injected Dose per Organ, Blood","[1]; i.v., 1 min",18.76 ± 6.91 % Injected Dose per Organ
same,"% Injected Dose per Organ, Brain","[1]; i.v., 1 min",0.10 ± 0.02 % Injected Dose per Organ
same,"% Injected Dose per Organ, Heart","[1]; i.v., 1 min",1.03 ± 0.17 % Injected Dose per Organ
same,"% Injected Dose per Organ, Kidney (one)","[1]; i.v., 1 min",8.33 ± 0.80 % Injected Dose per Organ
same,"% Injected Dose per Organ, Liver","[1]; i.v., 1 min",50.62 ± 5.72 % Injected Dose per Organ
same,"% Injected Dose per Organ, Lungs","[1]; i.v., 1 min",1.63 ± 0.47 % Injected Dose per Organ
same,"% Injected Dose per Organ, Spleen","[1]; i.v., 1 min",1.07 ± 0.35 % Injected Dose per Organ
same,"% injected dose in heart, 1 min","[1]; i.v., 1 min, preliminary studies",1.03 ± 0.17 % injected dose
same,"% Injected Dose per Gram Tissue, Blood","[1]; i.v., 15 min",0.13 ± 0.01 % Injected Dose per Gram Tissu
same,"% Injected Dose per Gram Tissue, Brain","[1]; i.v., 15 min",0.03 ± 0.01 % Injected Dose per Gram Tissu
same,"% Injected Dose per Gram Tissue, Heart","[1]; i.v., 15 min",1.23 ± 0.07 % Injected Dose per Gram Tissu
same,"% Injected Dose per Gram Tissue, Kidney (one)","[1]; i.v., 15 min",10.49 ± 0.92 % Injected Dose per Gram Tissu
same,"% Injected Dose per Gram Tissue, Liver","[1]; i.v., 15 min",3.92 ± 0.20 % Injected Dose per Gram Tissu
same,"% Injected Dose per Gram Tissue, Lungs","[1]; i.v., 15 min",0.63 ± 0.03 % Injected Dose per Gram Tissu
same,"% Injected Dose per Gram Tissue, Spleen","[1]; i.v., 15 min",1.96 ± 0.32 % Injected Dose per Gram Tissu
same,"% Injected Dose per Organ, Blood","[1]; i.v., 15 min",1.97 ± 0.15 % Injected Dose per Organ
same,"% Injected Dose per Organ, Brain","[1]; i.v., 15 min",0.04 ± 0.01 % Injected Dose per Organ
same,"% Injected Dose per Organ, Heart","[1]; i.v., 15 min",0.93 ± 0.04 % Injected Dose per Organ
same,"% Injected Dose per Organ, Kidney (one)","[1]; i.v., 15 min",8.77 ± 0.60 % Injected Dose per Organ
same,"% Injected Dose per Organ, Liver","[1]; i.v., 15 min",36.83 ± 2.91 % Injected Dose per Organ
same,"% Injected Dose per Organ, Lungs","[1]; i.v., 15 min",0.75 ± 0.05 % Injected Dose per Organ
same,"% Injected Dose per Organ, Spleen","[1]; i.v., 15 min",1.25 ± 0.20 % Injected Dose per Organ
same,"% Injected Dose per Gram Tissue, Blood","[1]; i.v., 120 min",0.03 ± 0.01 % Injected Dose per Gram Tissu
same,"% Injected Dose per Gram Tissue, Brain","[1]; i.v., 120 min",0.02 ± 0.01 % Injected Dose per Gram Tissu
same,"% Injected Dose per Gram Tissue, Heart","[1]; i.v., 120 min",1.36 ± 0.09 % Injected Dose per Gram Tissu
same,"% Injected Dose per Gram Tissue, Kidney (one)","[1]; i.v., 120 min",6.86 ± 0.54 % Injected Dose per Gram Tissu
same,"% Injected Dose per Gram Tissue, Liver","[1]; i.v., 120 min",0.42 ± 0.02 % Injected Dose per Gram Tissu
same,"% Injected Dose per Gram Tissue, Lungs","[1]; i.v., 120 min",0.58 ± 0.06 % Injected Dose per Gram Tissu
same,"% Injected Dose per Gram Tissue, Spleen","[1]; i.v., 120 min",1.59 ± 0.16 % Injected Dose per Gram Tissu
same,"% Injected Dose per Organ, Blood","[1]; i.v., 120 min",0.45 ± 0.03 % Injected Dose per Organ
same,"% Injected Dose per Organ, Brain","[1]; i.v., 120 min",0.04 ± 0.01 % Injected Dose per Organ
same,"% Injected Dose per Organ, Heart","[1]; i.v., 120 min",0.01 ± 0.06 % Injected Dose per Organ
same,"% Injected Dose per Organ, Kidney (one)","[1]; i.v., 120 min",5.40 ± 0.24 % Injected Dose per Organ
same,"% Injected Dose per Organ, Liver","[1]; i.v., 120 min",3.91 ± 0.19 % Injected Dose per Organ
same,"% Injected Dose per Organ, Lungs","[1]; i.v., 120 min",0.64 ± 0.06 % Injected Dose per Organ
same,"% Injected Dose per Organ, Spleen","[1]; i.v., 120 min",0.97 ± 0.07 % Injected Dose per Organ
same,"% injected dose in heart, 2 h","[1]; i.v., 2 h, preliminary studies",1.01 ± 0.06 % injected dose
same,Heart/Blood,"[1]; ratio, i.v., 1 min",1.11 ± 0.40
same,Heart/Liver,"[1]; ratio, i.v., 1 min",0.23 ± 0.06
same,Heart/Lungs,"[1]; ratio, i.v., 1 min",1.07 ± 0.12
same,Heart/Blood,"[1]; ratio, i.v., 15 min",9.65 ± 0.53
same,Heart/Liver,"[1]; ratio, i.v., 15 min",0.32 ± 0.02
same,Heart/Lungs,"[1]; ratio, i.v., 15 min",1.96 ± 0.20
same,Heart/Blood,"[1]; ratio, i.v., 120 min",44.46 ± 1.63
same,Heart/Liver,"[1]; ratio, i.v., 120 min",3.24 ± 0.07
same,Heart/Lungs,"[1]; ratio, i.v., 120 min",2.34 ± 0.14
same,log P,[2]; 1-octanol / isotonic Tris buffer pH 7.0,2.73
